From patent US6737383B1, “Herbicidal oxadiazolidines” (priority 1999, dated 2004)

Tests used:
blackgrass = test: Test B pre/postemergence blackgrass; assay type: in vivo, Alopecurus myosuroides; details: for Blackgrass plant response rating: scale of 0 to 10 where 0 is no effect and 10 is complete control
In short: (§1)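 Response is a visual 0-to-10 score relative to untreated plants, where 0 means no effect and 10 means complete control, taken twelve to sixteen days after application. Treatments went onto soil at planting and onto foliage of 1- to 4-leaf plants, using a surfactant-containing non-phytotoxic solvent.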

giant foxtail = test: Test B pre/postemergence giant foxtail; assay type: in vivo, Setaria faberii; details: for Giant foxtail plant response rating: scale of 0 to 10 where 0 is no effect and 10 is complete control
In short: as §1

morningglory = test: Test B pre/postemergence morningglory; assay type: in vivo, Ipomoea hederacea; details: for Morningglory plant response rating: scale of 0 to 10 where 0 is no effect and 10 is complete control
In short: as §1

rape = test: Test B pre/postemergence rape; assay type: in vivo, Brassica napus; details: for Rape plant response rating: scale of 0 to 10 where 0 is no effect and 10 is complete control
In short: as §1

cocklebur = test: Test B pre/postemergence cocklebur; assay type: in vivo, Xanthium strumarium; details: for Cocklebur plant response rating: scale of 0 to 10 where 0 is no effect and 10 is complete control
In short: as §1

velvetleaf = test: Test B pre/postemergence velvetleaf; assay type: in vivo, Abutilon theophrasti; details: for Velvetleaf plant response rating: scale of 0 to 10 where 0 is no effect and 10 is complete control
In short: as §1

surinam grass = test: Test B pre/postemergence surinam grass; assay type: in vivo, Brachiaria decumbens; details: for B. signalgrass plant response rating: scale of 0 to 10 where 0 is no effect and 10 is complete control
In short: as §1

pigweed = test: Test B pre/postemergence pigweed; assay type: in vivo, Amaranthus retroflexus; details: for Redroot pigweed plant response rating: scale of 0 to 10 where 0 is no effect and 10 is complete control
In short: as §1

corn = test: Test B pre/postemergence corn; assay type: in vivo, Zea mays; details: for Corn plant response rating: scale of 0 to 10 where 0 is no effect and 10 is complete control
In short: as §1

soybean = test: Test B pre/postemergence soybean; assay type: in vivo, Glycine max; details: for Soybean plant response rating: scale of 0 to 10 where 0 is no effect and 10 is complete control
In short: as §1

purple nutsedge = test: Test B pre/postemergence purple nutsedge; assay type: in vivo, Cyperus rotundus; details: for Nutsedge plant response rating: scale of 0 to 10 where 0 is no effect and 10 is complete control
In short: as §1

wild oat = test: Test B pre/postemergence wild oat; assay type: in vivo, Avena fatua; details: for Wild oats plant response rating: scale of 0 to 10 where 0 is no effect and 10 is complete control
In short: as §1

sugar beet = test: Test B pre/postemergence sugar beet; assay type: in vivo, Beta vulgaris; details: for Sugarbeets plant response rating: scale of 0 to 10 where 0 is no effect and 10 is complete control
In short: as §1

wheat = test: Test B pre/postemergence wheat; assay type: in vivo, Triticum aestivum; details: for Wheat plant response rating: scale of 0 to 10 where 0 is no effect and 10 is complete control
In short: as §1

bedstraw = test: Test B pre/postemergence bedstraw; assay type: in vivo, Galium aparine; details: for Bedstraw plant response rating: scale of 0 to 10 where 0 is no effect and 10 is complete control
In short: as §1

crabgrass = test: Test B pre/postemergence crabgrass; assay type: in vivo, Digitaria sanguinalis; details: for Crabgrass plant response rating: scale of 0 to 10 where 0 is no effect and 10 is complete control
In short: as §1

[1] = Postemergence, Rate 125 g/ha, scale 0 to 10, 0 is no effect, 10 is complete control
[2] = Postemergence, Rate 250 g/ha, scale 0 to 10, 0 is no effect, 10 is complete control
[3] = Preemergence, Rate 62 g/ha, scale 0 to 10 (0 no effect, 10 complete control)
[4] = Rate 500 g/ha, Postemergence, scale 0 to 10, 0 no effect, 10 complete control

## CC(C)N(C(=O)n1oc(=O)n(C2(C)CC2)c1=O)c1ccc(F)cc1F [Compound 363]
blackgrass; [1]
  Plant response rating, Blackgrass: 7
blackgrass; [2]
  Plant response rating, Blackgrass: 7
blackgrass; [3]
  Plant response rating, Blackgrass: 8
blackgrass; Preemergence, Rate 125 g/ha
  Blackgrass plant response rating (0 to 10 scale): 10
blackgrass; Preemergence, Rate 250 g/ha
  Blackgrass plant response rating: 10
blackgrass; Preemergence, Rate 500 g/ha
  Blackgrass plant response rating: 10
blackgrass; Rate 62 g/ha, Postemergence
  Blackgrass plant response rating: 5
blackgrass; [4]
  Plant response rating, Blackgrass: 8
Giant foxtail; [1]
  Plant response rating, Giant foxtail: 4
Giant foxtail; [2]
  Plant response rating, Giant foxtail: 9
Giant foxtail; Preemergence, Rate 125 g/ha
  Giant foxtail plant response rating (0 to 10 scale): 10
Giant foxtail; Preemergence, Rate 250 g/ha
  Giant foxtail plant response rating: 10
Giant foxtail; Preemergence, Rate 500 g/ha
  Giant foxtail plant response rating: 10
Giant foxtail; Rate 62 g/ha, Postemergence
  Giant foxtail plant response rating: 4
Giant foxtail; [4]
  Plant response rating, Giant foxtail: 9
morningglory; [1]
  Plant response rating, Morningglory: 1
morningglory; [2]
  Plant response rating, Morningglory: 1
morningglory; [3]
  Plant response rating, Morningglory: 0
morningglory; Preemergence, Rate 125 g/ha
  Morningglory plant response rating (0 to 10 scale): 0
morningglory; Preemergence, Rate 250 g/ha
  Morningglory plant response rating: 5
morningglory; Preemergence, Rate 500 g/ha
  Morningglory plant response rating: 6
morningglory; Rate 62 g/ha, Postemergence
  Morningglory plant response rating: 1
morningglory; [4]
  Plant response rating, Morningglory: 3
rape; [1]
  Plant response rating, Rape: 0
rape; [2]
  Plant response rating, Rape: 0
rape; [3]
  Plant response rating, Rape: 0
rape; Preemergence, Rate 125 g/ha
  Rape plant response rating (0 to 10 scale): 1
rape; Preemergence, Rate 250 g/ha
  Rape plant response rating: 3
rape; Preemergence, Rate 500 g/ha
  Rape plant response rating: 5
rape; Rate 62 g/ha, Postemergence
  Rape plant response rating: 0
rape; [4]
  Plant response rating, Rape: 2
cocklebur; [1]
  Plant response rating, Cocklebur: 0
cocklebur; [2]
  Plant response rating, Cocklebur: 2
cocklebur; [3]
  Plant response rating, Cocklebur: 0
cocklebur; Preemergence, Rate 125 g/ha
  Cocklebur plant response rating (0 to 10 scale): 0
cocklebur; Preemergence, Rate 250 g/ha
  Cocklebur plant response rating: 0
cocklebur; Preemergence, Rate 500 g/ha
  Cocklebur plant response rating: 0
cocklebur; Rate 62 g/ha, Postemergence
  Cocklebur plant response rating: 0
cocklebur; [4]
  Plant response rating, Cocklebur: 2
velvetleaf; [1]
  Plant response rating, Velvetleaf: 0
velvetleaf; [2]
  Plant response rating, Velvetleaf: 3
velvetleaf; [3]
  Plant response rating, Velvetleaf: 1
velvetleaf; Preemergence, Rate 125 g/ha
  Velvetleaf plant response rating (0 to 10 scale): 5
velvetleaf; Preemergence, Rate 250 g/ha
  Velvetleaf plant response rating: 6
velvetleaf; Preemergence, Rate 500 g/ha
  Velvetleaf plant response rating: 7
velvetleaf; Rate 62 g/ha, Postemergence
  Velvetleaf plant response rating: 0
velvetleaf; [4]
  Plant response rating, Velvetleaf: 6
Surinam grass; [1]
  Plant response rating, B. signalgrass: 0
Surinam grass; [2]
  Plant response rating, B. signalgrass: 1
Surinam grass; [3]
  Plant response rating, B. signalgrass: 3
Surinam grass; Preemergence, Rate 125 g/ha
  B. signalgrass plant response rating (0 to 10 scale, 0 is no effect, 10 is complete control): 3
Surinam grass; Preemergence, Rate 250 g/ha
  B. signalgrass plant response rating: 5
Surinam grass; Preemergence, Rate 500 g/ha
  B. signalgrass plant response rating: 6
Surinam grass; Rate 62 g/ha, Postemergence
  B. signalgrass plant response rating: 0
Surinam grass; [4]
  Plant response rating, B. signalgrass: 5
pigweed; [1]
  Plant response rating, Redroot pigweed: 0
pigweed; [2]
  Plant response rating, Redroot pigweed: 2
pigweed; [3]
  Plant response rating, Redroot pigweed: 2
pigweed; Preemergence, Rate 125 g/ha
  Redroot pigweed plant response rating (0 to 10 scale): 3
pigweed; Preemergence, Rate 250 g/ha
  Redroot pigweed plant response rating: 7
pigweed; Preemergence, Rate 500 g/ha
  Redroot pigweed plant response rating: 10
pigweed; Rate 62 g/ha, Postemergence
  Redroot pigweed plant response rating: 0
pigweed; [4]
  Plant response rating, Redroot pigweed: 5
corn; [1]
  Plant response rating, Corn: 0
corn; [2]
  Plant response rating, Corn: 2
corn; [3]
  Plant response rating, Corn: 0
corn; Preemergence, Rate 125 g/ha
  Corn plant response rating (0 to 10 scale): 0
corn; Preemergence, Rate 250 g/ha
  Corn plant response rating: 3
corn; Preemergence, Rate 500 g/ha
  Corn plant response rating: 7
corn; Rate 62 g/ha, Postemergence
  Corn plant response rating: 0
corn; [4]
  Plant response rating, Corn: 6
soybean; [1]
  Plant response rating, Soybean: 5
soybean; [2]
  Plant response rating, Soybean: 6
soybean; [3]
  Plant response rating, Soybean: 0
soybean; Preemergence, Rate 125 g/ha
  Soybean plant response rating (0 to 10 scale): 0
soybean; Preemergence, Rate 250 g/ha
  Soybean plant response rating: 0
soybean; Preemergence, Rate 500 g/ha
  Soybean plant response rating: 0
soybean; Rate 62 g/ha, Postemergence
  Soybean plant response rating: 4
soybean; [4]
  Plant response rating, Soybean: 7
Purple nutsedge; [1]
  Plant response rating, Nutsedge: 0
Purple nutsedge; [2]
  Plant response rating, Nutsedge: 0
Purple nutsedge; [3]
  Plant response rating, Nutsedge: 0
Purple nutsedge; Preemergence, Rate 125 g/ha
  Nutsedge plant response rating (0 to 10 scale): 0
Purple nutsedge; Preemergence, Rate 250 g/ha
  Nutsedge plant response rating: 0
Purple nutsedge; Preemergence, Rate 500 g/ha
  Nutsedge plant response rating: 2
Purple nutsedge; Rate 62 g/ha, Postemergence
  Nutsedge plant response rating: 0
Purple nutsedge; [4]
  Plant response rating, Nutsedge: 0
Wild oat; [1]
  Plant response rating, Wild oats: 0
Wild oat; [2]
  Plant response rating, Wild oats: 1
Wild oat; [3]
  Plant response rating, Wild oats: 5
Wild oat; Preemergence, Rate 125 g/ha
  Wild oats plant response rating (0 to 10 scale): 9
Wild oat; Preemergence, Rate 250 g/ha
  Wild oats plant response rating: 10
Wild oat; Preemergence, Rate 500 g/ha
  Wild oats plant response rating: 10
Wild oat; Rate 62 g/ha, Postemergence
  Wild oats plant response rating: 0
Wild oat; [4]
  Plant response rating, Wild oats: 7
Sugar beet; [1]
  Plant response rating, Sugarbeets: 1
Sugar beet; [2]
  Plant response rating, Sugarbeets: 3
Sugar beet; [3]
  Plant response rating, Sugarbeets: 0
Sugar beet; Preemergence, Rate 125 g/ha
  Sugarbeets plant response rating (0 to 10 scale): 4
Sugar beet; Preemergence, Rate 250 g/ha
  Sugarbeets plant response rating: 7
Sugar beet; Preemergence, Rate 500 g/ha
  Sugarbeets plant response rating: 8
Sugar beet; Rate 62 g/ha, Postemergence
  Sugarbeets plant response rating: 0
Sugar beet; [4]
  Plant response rating, Sugarbeets: 3
wheat; [1]
  Plant response rating, Wheat: 4
wheat; [2]
  Plant response rating, Wheat: 5
wheat; [3]
  Plant response rating, Wheat: 3
wheat; Preemergence, Rate 125 g/ha
  Wheat plant response rating (0 to 10 scale): 5
wheat; Preemergence, Rate 250 g/ha
  Wheat plant response rating: 6
wheat; Preemergence, Rate 500 g/ha
  Wheat plant response rating: 7
wheat; Rate 62 g/ha, Postemergence
  Wheat plant response rating: 0
wheat; [4]
  Plant response rating, Wheat: 6
bedstraw; [1]
  Plant response rating, Bedstraw: 4
bedstraw; [2]
  Plant response rating, Bedstraw: 7
bedstraw; [3]
  Plant response rating, Bedstraw: 9
bedstraw; Preemergence, Rate 125 g/ha
  Bedstraw plant response rating (0 to 10 scale): 9
bedstraw; Preemergence, Rate 250 g/ha
  Bedstraw plant response rating: 10
bedstraw; Preemergence, Rate 500 g/ha
  Bedstraw plant response rating: 10
bedstraw; Rate 62 g/ha, Postemergence
  Bedstraw plant response rating: 4
bedstraw; [4]
  Plant response rating, Bedstraw: 9
crabgrass; [1]
  Plant response rating, Crabgrass: 2
crabgrass; [2]
  Plant response rating, Crabgrass: 5
crabgrass; [3]
  Plant response rating, Crabgrass: 3
crabgrass; Preemergence, Rate 125 g/ha
  Crabgrass plant response rating (0 to 10 scale): 7
crabgrass; Preemergence, Rate 250 g/ha
  Crabgrass plant response rating: 7
crabgrass; Preemergence, Rate 500 g/ha
  Crabgrass plant response rating: 9
crabgrass; Rate 62 g/ha, Postemergence
  Crabgrass plant response rating: 1
crabgrass; [4]
  Plant response rating, Crabgrass: 9
